Assay results published in US6432979B1, “Method of treating or inhibiting colonic polyps and colorectal cancer” (American Cyanamid Company, priority 1999, dated 2002).

Test system: intestinal polyps (adenomas)
Test: in vivo standard pharmacological test procedure emulating familial adenomatous polyps (FAP) using the Min mouse; polyp count
Set-up: species or system Min mouse (C57BL/6J-Min/+)
Settings: for Number of Polyps: 60 days
Source text: The procedure described below emulates familial adenomatous polyps (FAP) in humans using the Min mouse (C57BL/6J-Min/+), which is a strain which has lost […] copies of the APC gene. These animals develop multiple intestinal polyps (adenomas) that ultimately progress to form adenocarcinomas. The polyps that develop in Min mice express EGFR and have activated COX-2. […] The following briefly describes the procedure used and the results obtained in this standard pharmacological test procedure.
The animals were treated for 60 days. The food was weighed once per week to determine consumption, and the animals also weighed weekly. On day 61, the animals were euthanized with CO2 inhalation, and the entire intestinal tract from stomach to anus was removed. The intestinal tract was injected with Bouins fixative, and allowed to fix for several days. The intestinal tracts were then opened and the number of polyps counted. Statistical analysis was performed using the Student's t-Test; a p value of ≦0.05 is considered statistically significant.
The above standard pharmacological test procedure was run again using (4-dimethylamino-but-2-enoic acid [4-(3-chloro-4-fluoro-phenylamino)-3-cyano-7-ethoxy-quinolin-6-yl]-amide as a representative EGFR kinase inhibitor, as follows. Test animals were divided into four treatment groups: Group I, control; Group II, (4-dimethylamino-but-2-enoic acid [4-(3-chloro-4-fluoro-phenylamino)-3-cyano-7-ethoxy-quinolin-6-yl]-amide Group III, sulindac; and Group IV, combination of sulindac and (4-dimethylamino-but-2-enoic acid [4-(3-chloro-4-fluoro-phenylamino)-3-cyano-7-ethoxy-quinolin 6-yl]-amide. The test compound was blended with a standard murine chow and animals were given ad libitum access to the food, in quantities corresponding to the following approximate daily dosages: Group II—20 mg/kg/(4-dimethylamino-but-2-enoic acid [4-(3-chloro-4-fluoro-phenylamino)-3-cyano-7-ethoxy-quinolin-6-yl]-amide, Group III—5 mg/kg/day sulindac; and Group IV—20 mg/kg/(4-dimethylamino-but-2-enoic acid [4-(3-chloro-4-fluoro-phenylamino)-3-cyano-7-ethoxy-quinolin-6-yl]-amide and 5 mg/kg/day sulindac. The animals were treated for 60 days. The food was weighed once per week to determnine consumption, and the animals also weighed weekly. On day 61, the animals were euthanized with CO2 inhalation, and the entire intestinal tract from stomach to anus was removed. The intestinal tract was injected with Bouins fixative, and allowed to fix for several days. The intestinal tracts were then opened and the number of polyps counted. Statistical analysis was performed using the Students t-Test; a p value of ≦0.05 is considered statistically significant.

Question: How did the “Number of Polyps” value (first run, 40 mg/kg/day in chow, counted day 61, control 32.3 ± 20.7) turn out when `CC#CC(=O)Nc1ccc2ncnc(Nc3cccc(Br)c3)c2c1` was run?
Answer: 15.6 ± 10.6

Question: For `CC1=C(CC(=O)O)c2cc(F)ccc2/C1=C\c1ccc([S+](C)[O-])cc1` (stereo not shown) [sulindac], which “Number of Polyps” value (first run, 20 mg/kg/day sulindac in chow, counted day 61, control 32.3 ± 20.7) is on record?
Answer: 10.0 ± 6.6

Question: What about the “Number of Polyps” value (third run, 5 mg/kg/day sulindac in chow, control 19.5 ± 14.1) of the same compound?
Answer: 20.6 ± 11.8

Question: And the “reduction of polyp numbers (in words)” value (third run, sulindac alone at the 5 mg/kg dose)?
Answer: did not reduce polyp numbers at all
